Laboratory results: patent US6914045B2, “Glycopeptide antibiotics” (Wyeth Holdings Corporation, priority 2001, dated 2005)
Values after ≈ are worked out from the molar mass of the structure shown.

Columns and labels:
[1] = system: Streptococcus pneumoniae (GC 1894); assay: acute lethal infection in mice; type: in vivo; details: female CD-1 mice, intraperitoneal challenge, intravenous 30 min. after infection, 7 day survival
Method in brief: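 Protocol: bacteria suspended in trypticase soy broth or hog gastric mucin injected ip into female CD-1 mice at a level killing untreated controls in 24-48 hr; compound given iv in saline or 5% dextrose 30 min post-challenge; five mice per dose; ED50 derived from pooled 7 day survival of three runs.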

[2] = system: Staphylococcus sp.; assay: in vitro antibacterial evaluation, MIC by broth dilution; type: cell-based; details: broth dilution, 18 hours at 35° C.
Method in brief: (§1)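 Broth dilution per NCCLS M7-A2 in Mueller-Hinton II medium, inoculum 5×10^5 CFU/mL, antibiotic range 64-0.06 μg/mL. MIC taken as lowest concentration inhibiting growth; Gram-positive panel includes recent clinical isolates resistant to methicillin, penicillin and/or vancomycin.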

[3] = system: Escherichia coli; assay: as above; type: cell-based; details: 18 hours at 35° C.
Method in brief: as §1

[4] = system: Streptococcus sp.; assay: as above; type: cell-based; details: broth dilution, 18 hours at 35° C.
Method in brief: as §1

[5] = system: Enterococcus sp.; assay: as above; type: cell-based; details: broth dilution, 18 hours at 35° C.
Method in brief: as §1

CC(c1ccccc1)C1NC(=O)CNC(=O)C(CO)NC(=O)C(C(O)C2CNC(=N)N2C2OC(CO)C(O)C(O)C2O)NC(=O)C(C(O)C2CNC(=N)N2)NC(=O)C(Cc2ccc(OC3OC(CO)C(OC4OC5COC(C6CCCCC6)OC5C(O)C4O)C(O)C3O)cc2)NC1=O (stereo not drawn) [Example 112, Cyclo[glycyl-β-methylphenylalanyl-O-[4-O-[4,6-O-(cyclohexylmethylene)hexopyranosyl]-hexopyranosyl]tyrosyl-3-(2-iminoimidazolidin-4-yl)seryl-3-(3-hexopyranosyl-2-iminoimidazolidin-4-yl)serylseryl]]
median effective dose (ED50), Streptococcus pneumoniae (GC 1894) [1]: 0.02 mg/kg
MIC Coagulase Negative Staphylococcus (GC 4547) [2]: 0.5 to 1 µg/mL
MIC Coagulase Negative Staphylococcus (GC 4548) [2]: 0.5 to 1 µg/mL
MIC Coagulase Negative Staphylococcus (GC 4549) [2]: 0.5 to 1 µg/mL
MIC Coagulase Negative Staphylococcus (GC 4551) [2]: 0.5 to 1 µg/mL
MIC Coagulase Negative Staphylococcus (GC 6257) [2]: 1 µg/mL (≈ 0.72 µM)
MIC Coagulase Negative Staphylococcus (ID-3941) [2]: 0.5 µg/mL (≈ 0.36 µM)
MIC Staphylococcus aureus (ATCC 29213) [2]: 1 µg/mL (≈ 0.72 µM)
MIC Staphylococcus aureus (GC 1131) [2]: 0.5 to 1 µg/mL
MIC Staphylococcus aureus (GC 4541) [2]: 1 µg/mL (≈ 0.72 µM)
MIC Staphylococcus aureus (GC 4542) [2]: 1 µg/mL (≈ 0.72 µM)
MIC Staphylococcus aureus (GC 4544) [2]: 0.5 to 2 µg/mL
MIC Staphylococcus aureus (GC 4545) [2]: 1 to 2 µg/mL
MIC Staphylococcus aureus-SMITH (GC 4543) [2]: 0.5 to 1 µg/mL
MIC Staphylococcus haemolyticus (GC 4546) [2]: 1 µg/mL (≈ 0.72 µM)
MIC Staphylococcus aureus (GC 1131) ([2]; inoculum 5×10^5 CFU/mL, strain GC 1131): 0.5 to 1 µg/mL
MIC Staphylococcus aureus (ATCC 29213) ([2]; strain ATCC 29213): 1 µg/mL (≈ 0.72 µM)
MIC Staphylococcus aureus (GC 4541) ([2]; strain GC 4541): 1 µg/mL (≈ 0.72 µM)
MIC Staphylococcus aureus (GC 4542) ([2]; strain GC 4542): 1 µg/mL (≈ 0.72 µM)
MIC Staphylococcus aureus (GC 4544) ([2]; strain GC 4544): 0.5 to 2 µg/mL
MIC Staphylococcus aureus (GC 4545) ([2]; strain GC 4545): 1 to 2 µg/mL
MIC Staphylococcus haemolyticus (GC 4546) ([2]; strain GC 4546): 1 µg/mL (≈ 0.72 µM)
MIC Coagulase Negative Staphylococcus (GC 4547) ([2]; strain GC 4547): 0.5 to 1 µg/mL
MIC Coagulase Negative Staphylococcus (GC 4548) ([2]; strain GC 4548): 0.5 to 1 µg/mL
MIC Coagulase Negative Staphylococcus (GC 4549) ([2]; strain GC 4549): 0.5 to 1 µg/mL
MIC Coagulase Negative Staphylococcus (GC 4551) ([2]; strain GC 4551): 0.5 to 1 µg/mL
MIC Coagulase Negative Staphylococcus (GC 6257) ([2]; strain GC 6257): 1 µg/mL (≈ 0.72 µM)
MIC Coagulase Negative Staphylococcus (ID-3941) ([2]; strain ID-3941): 0.5 µg/mL (≈ 0.36 µM)
MIC Staphylococcus aureus-SMITH (GC 4543) ([2]; strain SMITH GC 4543): 0.5 to 1 µg/mL
MIC Escherichia coli (ATCC 25922) ([3]; strain ATCC 25922): 32 µg/mL (≈ 23 µM)
MIC Escherichia coli (GC 4559) ([3]; strain GC 4559): >16 µg/mL
MIC Escherichia coli (GC 4560) ([3]; strain GC 4560): 1 µg/mL (≈ 0.72 µM)
MIC Streptococcus agalactiae (GC 4564) ([4]; Streptococcus agalactiae (GC 4564)): <0.12 µg/mL
MIC Streptococcus pneumoniae (GC 4565) ([4]; Streptococcus pneumoniae (GC 4565)): <0.12 µg/mL
MIC Streptococcus pyogenes (GC 4563) ([4]; Streptococcus pyogenes (GC 4563)): <0.12 µg/mL
MIC Streptococcus pyogenes (ID-3187) ([4]; Streptococcus pyogenes (ID-3187)): 0.5 µg/mL (≈ 0.36 µM)
MIC Streptococcus pyogenes (GC 4563) ([4]; strain GC 4563): <0.12 µg/mL
MIC Streptococcus agalactiae (GC 4564) ([4]; strain GC 4564): <0.12 µg/mL
MIC Streptococcus pneumoniae (GC 4565) ([4]; strain GC 4565): <0.12 µg/mL
MIC Streptococcus pyogenes (ID-3187) ([4]; strain ID-3187): 0.5 µg/mL (≈ 0.36 µM)
MIC Enterococcus avium (GC 4558) ([5]; Enterococcus avium (GC 4558)): 2 µg/mL (≈ 1.44 µM)
MIC Enterococcus faecalis (ATCC 29212) ([5]; Enterococcus faecalis (ATCC 29212)): 2 µg/mL (≈ 1.44 µM)
MIC Enterococcus faecalis (GC 2242) ([5]; Enterococcus faecalis (GC 2242)): 1 to 2 µg/mL
MIC Enterococcus faecalis (GC 2691) ([5]; Enterococcus faecalis (GC 2691)): 2 µg/mL (≈ 1.44 µM)
MIC Enterococcus faecalis (GC 3059) ([5]; Enterococcus faecalis (GC 3059)): 2 µg/mL (≈ 1.44 µM)
MIC Enterococcus faecalis (GC 4552) ([5]; Enterococcus faecalis (GC 4552)): 2 µg/mL (≈ 1.44 µM)
MIC Enterococcus faecalis (GC 4553) ([5]; Enterococcus faecalis (GC 4553)): 2 to 4 µg/mL
MIC Enterococcus faecalis (GC 4554) ([5]; Enterococcus faecalis (GC 4554)): 2 µg/mL (≈ 1.44 µM)
MIC Enterococcus faecalis (GC 6189) ([5]; Enterococcus faecalis (GC 6189)): 2 µg/mL (≈ 1.44 µM)
MIC Enterococcus faecium (GC 2243) ([5]; Enterococcus faecium (GC 2243)): 1 to 2 µg/mL
MIC Enterococcus faecium (GC 4556) ([5]; Enterococcus faecium (GC 4556)): 2 µg/mL (≈ 1.44 µM)
MIC Enterococcus faecium (GC 4557) ([5]; Enterococcus faecium (GC 4557)): 0.5 to 2 µg/mL
MIC Enterococcus faecalis (ATCC 29212) ([5]; strain ATCC 29212): 2 µg/mL (≈ 1.44 µM)
MIC Enterococcus faecalis (GC 2242) ([5]; strain GC 2242): 1 to 2 µg/mL
MIC Enterococcus faecium (GC 2243) ([5]; strain GC 2243): 1 to 2 µg/mL
MIC Enterococcus faecalis (GC 2691) ([5]; strain GC 2691): 2 µg/mL (≈ 1.44 µM)
MIC Enterococcus faecalis (GC 3059) ([5]; strain GC 3059): 2 µg/mL (≈ 1.44 µM)
MIC Enterococcus faecalis (GC 4552) ([5]; strain GC 4552): 2 µg/mL (≈ 1.44 µM)
MIC Enterococcus faecalis (GC 4553) ([5]; strain GC 4553): 2 to 4 µg/mL
MIC Enterococcus faecalis (GC 4554) ([5]; strain GC 4554): 2 µg/mL (≈ 1.44 µM)
MIC Enterococcus faecium (GC 4556) ([5]; strain GC 4556): 2 µg/mL (≈ 1.44 µM)
MIC Enterococcus faecium (GC 4557) ([5]; strain GC 4557): 0.5 to 2 µg/mL
MIC Enterococcus avium (GC 4558) ([5]; strain GC 4558): 2 µg/mL (≈ 1.44 µM)
MIC Enterococcus faecalis (GC 6189) ([5]; strain GC 6189): 2 µg/mL (≈ 1.44 µM)
